Data set [1] concerns Escherichia coli VKPM (B-7935). Kind of data set: Antimicrobial assay, growth inhibition (optical density). Conditions: E. coli, 18 h. Type of data set: cell-based. The method, boiled down: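 Compound tested from 100 µM downward; 1% DMSO in PBS as negative control. Planktonic growth read as OD at 620 nm after 18 h; 18 h biofilm formation quantified with MTT at 570 nm. Values as percent of control, reported as minimal concentration giving 50% reduction (MIC50).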

Data set [2] deals with HepG2 cells. Also on record: method as in PMID 29642369. As to conditions: HepG2, at 100 µM; cited from earlier work.
Data set [3] can be described thus: Competitive assay with 4-hydroxytamoxifen (MTT viability). Conditions: human. Type of data set: cell-based. Here is the method:
Since estrogen-dependent breast cancer MCF-7 cells were proposed to be more sensitive to compound 8, the estrogen receptor (ER) dependence of petromurin C (8) cytotoxicity to estrogen-dependent MCF-7 cells was investigated using 4-hydroxytamoxifen (4-OHT) as an ERs antagonist. MCF-7 cells were pretreated with 4-OHT at a nontoxic concentration of 0.1 µM for 1 h, and 8 at 10 µM was added for 48 h. The antagonist of estrogenic receptors, 4-hydroxytamoxifen (Lumiprobe, Moscow, Russia), was dissolved in DMSO at a concentration of 10 mM and stored with protection from light. The probe was then added to the cells at a final concentration of 1 µM. The investigated compounds were added to the cells after 1 h. Then the viability of MCF-7 cells was measured after 48 h using MTT assay (Section 4.8.3).

For data set [4], the system named is MCF-7 cells. Nature of the data set: MCF-7 cell colony formation (clonogenic) assay. It is filed as cell-based. As to conditions: Homo sapiens, MCF7, 240 h, 10 d. The method, then:
The effect of the compound on colony formation by MCF-7 cells was assessed using a clonogenic assay. The concentration of MCF-7 cells was 0.33 × 10^3/mL. The cells were incubated for 10 d, fixed with methanol (25 min), stained with 0.5% crystal violet solution (25 min), and washed with PBS. The grown colonies were counted using a BIO-PRINT-Cx4 Edge-Fixed Pad-Container (Vilber, Collegien, France). The results are presented as colony inhibition compared to that of the control.

Data set [5] concerns MCF-7 cells. Nature of the data set: Proliferation assay (CFDA SE, flow cytometry). Type of data set: cell-based, human. As to conditions: 5 µM, 48 h. Here is the method:
MCF-7 cells at a concentration of 1.2 × 10^4 cells/well were seeded in a 12-well plate for 24 h. After adhesion, the cells were stained with (5,6)-carboxyfluorescein succinimidyl ester (CFDA SE) dye (LumiTrace CFDA SE kit; Lumiprobe, Moscow, Russia). Thereafter, the compound (5 µM) was added to the wells.
After 48 h of incubation, the cells were washed twice with PBS, scraped, and collected. The intensity of CFDA fluorescence was analyzed using a NovoCyte flow cytometer (Agilent, Austin, TX, USA), and the data were analyzed as previously described.

≈ marks a conversion by molar mass, not a printed value. Like-named read-outs stand apart in the source and are kept apart here.

Here are results for two molecules from paper PMC12471299, “Secondary Metabolites of the Marine Sponge-Derived Fungus Aspergillus subramanianii 1901NT-1.40.2 and Their Antimicrobial and Anticancer Activities” (Marine Drugs, 2025).

One may read the MIC50 as an inhibitory concentration at the 50% level, which refers to growth in some studies and to a panel of isolates in others. The low end stands for higher susceptibility, the high end for lower susceptibility. As usually defined, the viability is a per cent measure of how many cells are alive, often set against a control. The inhibition is the drop in the measured response relative to a control, in per cent. A low value points to a response near the control.

For the molecule `COC1=C(c2c[nH]c3ccccc23)C(=O)C(CC=C(C)C)=C(c2c[nH]c3ccccc23)C1=O` [Compound 6, kumbicin D], the “Growth inhibition, MIC50” value in data set [1] is listed as 11.42 ± 1.02 µM. The same molecule showed an MIC50 in data set [1] (Escherichia coli) of 7 to 11 µM (≈ 3.06 to 4.8 µg/mL). Besides, the “effect on cells” value in data set [2] is “weak effects”.

Regarding `COc1c(OC)c(-c2c[nH]c3ccc(O)cc23)c(OC)c(OC)c1-c1c[nH]c2ccccc12` [Compound 8, petromurin C], in data set [3] (MCF-7 cells pretreated with 4-hydroxytamoxifen, 4-OHT 0.1 µM for 1 h, then 8 at 10 µM, read-out: viability of 4-OHT-pretreated MCF-7 cells), the viability at 48 h, 10 µM turned out to be 84.4 ± 1.1%. For the same molecule, the viability at 48 h, 10 µM in data set [3] (MCF-7 cells, 8 at 10 µM, no 4-OHT, read-out: viability of MCF-7 cells) came to 76.1 ± 1.6%. The molecule also yielded an inhibition at 5 µM in data set [4] (5 µM) of 16.8%. Also, the inhibition at 10 µM in data set [4] (10 µM) stood at 20.4%. In data set [5], the “percentage of cells in division 1” value was found to be 76.9%, the “percentage of cells in division 2” value is listed as 15.2% and the “percentage of cells in division 3” value is reported as 5.5%.
